Test results: BindingDB's records for patent US20250248955 (Longivitron (Suzhou) Biotechnology Co., 2025)

The compounds below were run against T1, Acetyl-CoA acetyltransferase, mitochondrial (Homo sapiens, UniProt P24752) (assay: Experimental Method Screening Method of ACAT1 Small Molecule Inhibitors).
T1 sequence (P24752 whole entry): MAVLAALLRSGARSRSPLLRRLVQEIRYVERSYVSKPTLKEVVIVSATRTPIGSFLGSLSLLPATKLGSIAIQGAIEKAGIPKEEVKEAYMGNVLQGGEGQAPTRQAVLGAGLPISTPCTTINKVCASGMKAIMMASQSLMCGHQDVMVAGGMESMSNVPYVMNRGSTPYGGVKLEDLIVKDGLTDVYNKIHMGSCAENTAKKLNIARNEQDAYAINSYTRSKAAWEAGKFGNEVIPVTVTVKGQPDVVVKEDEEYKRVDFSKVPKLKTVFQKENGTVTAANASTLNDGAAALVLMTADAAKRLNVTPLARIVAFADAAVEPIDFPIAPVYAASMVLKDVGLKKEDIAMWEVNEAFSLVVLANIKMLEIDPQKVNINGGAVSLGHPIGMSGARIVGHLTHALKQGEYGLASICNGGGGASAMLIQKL
Procedure: ACAT1 can catalyze two molecules of acetyl coenzyme A to reversibly form acetoacetyl coenzyme A. Its activity was measured through the reaction between ACAT1-catalyzed substrate acetoacetyl-coenzyme A and coenzyme A, from which the product acetyl-coenzyme A is produced. Since acetoacetyl-coenzyme A is specifically absorbed in a specific spectrum, the impact on the enzyme activity of ACAT1 can be reflected through the detection of an increase or decrease of absorption in a specific spectrum.ACAT1 recombinant proteins were expressed and purified by Escherichia coli, and the concentration of ACAT1 recombinant proteins obtained was 1 mg/mL. The buffers adopted for ACAT1 small molecule inhibitor screening were 50 mM Tris-HCl (pH 8.1), 20 mM MgCl2, and 40 mM KCl. In 200 μL of enzyme catalytic system, 1 μL of ACAT1 recombinant proteins, the substrate […] whose final concentration was changed from 25 μM to 100 μM through a CPM probe, and small molecule inhibitors at different concentrations were added, respectively.

Compound | IC50 [µM]
O=C(/C=C/c1ccc(O)c(O)c1)Nc1ccc(OCCc2ccc(O)cc2)cc1 [US20250248955, Compound M8] | 114
COCOc1ccc(/C=C/C(=O)Nc2ccc(OCCc3ccc(O)cc3)cc2)cc1OCOC [US20250248955, Compound M15] | 312
COCOc1ccc(/C=C/C(=O)Nc2ccc(OCCc3ccccc3)cc2)cc1OCOC [US20250248955, Compound M11] | 136
O=C(/C=C/c1ccc(O)c(O)c1)Nc1ccc(OCCc2ccccc2)cc1 [US20250248955, Compound M4] | 112

More lines, now with the values ahead:

IC50 [µM] | Compound
172 | COCOc1ccc(/C=C/C(=O)Nc2ccc(OCCc3ccc(OC)c(OC)c3)cc2)cc1OCOC [US20250248955, Compound M16]
134 | O=C(/C=C/c1ccc(O)c(O)c1)Nc1ccc(OCCc2ccc(F)cc2)cc1 [US20250248955, Compound M6]
111 | COCOc1ccc(/C=C/C(=O)Nc2ccc(OCCc3ccc(C)cc3)cc2)cc1OCOC [US20250248955, Compound M14]
152 | COCOc1ccc(/C=C/C(=O)Nc2ccc(OCCc3ccc(F)cc3)cc2)cc1OCOC [US20250248955, Compound M13]
> 100 | COc1ccc([C@H](O)[C@@H](C)Oc2ccc(OC(=O)/C=C/c3ccc(O)c(O)c3)cc2OC)cc1OC [US20250248955, Compound M2]
> 100 | COc1ccc([C@@H](O)[C@@H](C)Oc2ccc(OC(=O)/C=C/c3ccc(O)c(O)c3)cc2OC)cc1OC [US20250248955, Compound M3]
